Columns and labels:
Assay type in all cases: biochemical, Prescottella equi
Details in all cases: 50 mM HEPES pH 7.5, 25 °C (Methods: 2.5 mM HEPES)
[1] = tested on: ReNHase (Fe-type nitrile hydratase); assay: spectrophotometric, […],4-dihydroxybenzamide formation at […] nm
[2] = tested on: ReNHase (Fe-type nitrile hydratase); assay: spectrophotometric, 3-hydroxybenzamide formation at […] nm
[3] = tested on: ReNHase (Fe-type nitrile hydratase); assay: spectrophotometric, acetamide formation at […] nm
[4] = tested on: ReNHase (Fe-type nitrile hydratase); assay: spectrophotometric, acrylamide formation at […] nm
[5] = tested on: ReNHase (Fe-type nitrile hydratase); assay: spectrophotometric, benzamide formation at […] nm

**Q.** How did the Km [1] turn out when N#Cc1ccc(O)c(O)c1 [3,4-dihydroxybenzonitrile] was run?
**A.** Its Km is 168 ± 21 µM.

**Q.** For N#Cc1cccc(O)c1 [3-hydroxybenzonitrile], which Km [2] is on record?
**A.** The Km was 77 ± 17 µM.

**Q.** Which “Km (μM)” value [3] does the source give for CC#N [acetonitrile] here?
**A.** The value was 25 000 ± 2000 μM.

**Q.** For C=CC#N [acrylonitrile], which “Km (μM)” value [4] is on record?
**A.** Its value is 25 000 ± 11 000 μM.

**Q.** How did the Km [5] turn out when N#Cc1ccccc1 [benzonitrile] was run?
**A.** The Km was 13.2 ± 1.4 µM.

Source: article PMC8721871 (Biochemistry, 2021)
